Assay results as given in patent US20180172683A1, “METHODS FOR ANALYZING THE INTERACTION BETWEEN A TARGET PROTEIN AND A LIGAND” (UNIVERSITY OF SOUTHERN CALIFORNIA, priority 2015, published 2018).
Peptide text beside a SMILES is read from it. * marks the point of attachment. Biotin = O=C1N[C@H]2[C@H](CS[C@H]2CCCCC(=O)*)N1

Target: T1, Bcl-xL (Homo sapiens, UniProt Q07817)
T1 construct: The gene for the first 209 amino acids of Bcl-xL; made in house; host or cells: E. coli BL21(DE3), pET24a vector
T1 sequence (Q07817 1-209 limits assumed): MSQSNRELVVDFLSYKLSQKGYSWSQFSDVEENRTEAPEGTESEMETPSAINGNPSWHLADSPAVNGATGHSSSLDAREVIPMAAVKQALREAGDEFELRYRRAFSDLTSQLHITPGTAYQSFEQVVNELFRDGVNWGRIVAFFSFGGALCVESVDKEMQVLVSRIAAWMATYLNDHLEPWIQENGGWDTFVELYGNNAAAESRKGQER
Assay: High-throughput sequencing kinetic (HTSK) on- and off-rates of mRNA-peptide fusions
Format: binding
Details: mRNA-peptide fusions, next-generation sequencing
Protocol: Preparing the pools of fusion ligands. The DNAs for the final enriched pools from the extension and the doped selection against Bcl-xL were generated. The DNA pools were PCR amplified using Taq polymerase and in vitro transcribed into mRNA using T7 RNA polymerase (Liu et al., Methods Enzymol. 318, 268-293 (2000)). After transcription, the mRNA was urea-PAGE purified and resuspended in deionized water to a final concentration of 30 μM. The mRNA was then ligated to fluorescein-F30P (phosphate-dA21-[dT-fluor]-[C9]3-dAdCdCP; where [dT-fluor] is fluorescein dT (Glen Research), [C9] is spacer 9 (Glen Research), and P is puromycin (Glen Research); synthesized at the Keck Oligo Facility at Yale) using T4 DNA ligase (Takahashi et al., Methods Mol. Biol. 535, 293-314 (2009)). The ligation was performed using a splint complementary to the 3′ end of the RNA and the 5′ end of the DNA-linker. The ligated mRNA was urea-PAGE purified and resuspended in deionized water to final concentration of 30 μM. The samples were in vitro translated in the translation solution-150 mM KOAc, 750 μM MgCl2, 2 μM mRNA, in 1× translation mix (20 mM Hepes-KOH pH 7.6, 100 mM creatine phosphate, 2 mM DTT, and 312.5 μM of each amino acid) and 60% (v/v) rabbit reticulocyte lysate. To prepare radiolabeled peptides or proteins, non-labeled methionine was substituted with ^35S-labeled methionine (Perkin Elmer; 20 μCi for each 25 μL of translation). The translation reactions were incubated at 30° C. for one hour. To form mRNA-protein fusions, KCl and MgCl2 were added to the reaction to final concentrations of 250 mM and 30 mM respectively after translation, and the samples were frozen at −20° C.
To purify the fusion molecules, 100 μL of dT cellulose (25% (v/v) slurry, GE Healthcare) in isolation buffer (100 mM Tris-HCl pH 8.0, 1 M NaCl, 0.2% (v/v) Triton X-100) was added and incubated for 1 hour. The beads were washed five times with 700 μL of isolation buffer, and the fusions were eluted with 3×80 μL of 65° C. water and desalted through Centrisep columns (Princeton Separations). The desalted fusions were adjusted to 1×RT buffer (50 mM Tris-HCl pH 8.3, 75 mM KCl, 3 mM MgCl2, […], […],) and the sample was heated to 65° C. for 5 minutes and cooled on ice to anneal the 3′ primer. After cooling, […] of Superscript II enzyme was added and the reaction incubated at 42° C. for one hour. […]
On- and off-rate experiments. […] The radiolabeled samples were washed 3×, and the beads were counted via a scintillation counter.
To obtain the HTSK off-rates, after the kinetic on-rate experiment, the remaining beads were washed 5× with selection buffer. […] The radiolabeled samples were washed and counted via a scintillation counter. […]

| Structure (SMILES) | koff [s⁻¹] |
| --- | --- |
| CC[C@H](C)[C@H](NC(=O)[C@H](C)NC(=O)[C@@H](NC(=O)[C@@H](N)CCSC)[C@@H](C)CC)C(=O)N[C@@H](CO)C(=O)N[C@H](C(=O)N[C@H](C(=O)N[C@@H](Cc1ccc(O)cc1)C(=O)N[C@@H](CC(N)=O)C(=O)N[C@@H](Cc1ccc(O)cc1)C(=O)N[C@@H](CCCCN)C(=O)N[C@@H](CCCCN)C(=O)N[C@@H](C)C(=O)N[C@@H](C)C(=O)N[C@@H](CC(=O)O)C(=O)N[C@@H](Cc1c[nH]cn1)C(=O)N[C@@H](Cc1ccc(O)cc1)C(=O)N[C@@H](C)C(=O)N[C@@H](CCSC)C(=O)N[C@H](C(=O)N[C@@H](CCCCN)C(=O)NCC(=O)N[C@@H](CO)C(=O)N[C@@H](CCCCNC(=O)CCCC[C@@H]1SC[C@@H]2NC(=O)N[C@@H]21)C(N)=O)[C@@H](C)O)[C@@H](C)CC)[C@@H](C)O [D1] (H-MIAISTIYNYKKAADHYAMTKGSK(Biotin)-NH2) | 1e-06 |
| CC[C@H](C)[C@H](NC(=O)[C@@H](NC(=O)[C@@H](NC(=O)[C@@H](NC(=O)[C@H](CCC(=O)O)NC(=O)[C@@H](NC(=O)[C@@H](N)CCSC)[C@@H](C)CC)[C@@H](C)O)[C@@H](C)CC)[C@@H](C)O)C(=O)N[C@@H](Cc1ccc(O)cc1)C(=O)N[C@@H](CC(N)=O)C(=O)N[C@@H](Cc1ccc(O)cc1)C(=O)N[C@@H](CCCCN)C(=O)N[C@@H](CCCCN)C(=O)N[C@@H](C)C(=O)N[C@@H](C)C(=O)N[C@@H](CC(=O)O)C(=O)N[C@@H](Cc1c[nH]cn1)C(=O)N[C@@H](Cc1ccccc1)C(=O)N[C@@H](CO)C(=O)N[C@@H](CCSC)C(=O)N[C@@H](CO)C(=O)N[C@@H](CCSC)C(=O)NCC(=O)N[C@@H](CO)C(=O)N[C@@H](CCCCNC(=O)CCCC[C@@H]1SC[C@@H]2NC(=O)N[C@@H]21)C(N)=O [E1] (H-MIETITIYNYKKAADHFSMSMGSK(Biotin)-NH2) | 2.5e-06 |
